4 compounds from PMC9154761, “Development of Praziquantel sulphonamide derivatives as antischistosomal drugs” (Journal of Enzyme Inhibition and Medicinal Chemistry, 2022) can be followed below.

SMILES strings stand for the structures.

For one assay, the target named is T1, hCA IX (Homo sapiens, UniProt Q16790).
T1 construct: made in house
As to the kind of experiment: stopped flow CO2 hydrase assay, hCA IX. Type of assay: biochemical. To be noted: mean from three different assays. The protocol:
(§1) An Applied Photophysics stopped-flow instrument was used to assay the CA catalysed CO2 hydration activity. […] The CO2 concentrations ranged from 1.7 to 17 mM for the determination of the kinetic parameters and inhibition constants. […] For each inhibitor, at least six traces of the initial 5–10% of the reaction were used to determine the initial velocity. The uncatalyzed rates were determined in the same manner and subtracted from the total observed rates. Stock solutions of the inhibitor (0.1 mM) were prepared in distilled–deionized water and dilutions up to 0.01 nM were done thereafter with the assay buffer. Inhibitor and enzyme solutions were preincubated together for 15 min at room temperature prior to the assay, to allow for the formation of the E–I complex. The inhibition constants were obtained by non-linear least-squares methods using PRISM 3 and the Cheng-Prusoff equation as reported earlier and represent the mean from at least three different determinations. All CA isoforms were recombinant proteins obtained in house, as reported earlier[14]^,[26–29].

The next assay addresses T2, hCA IV (Homo sapiens, UniProt P22748).
T2 construct: made in house
As to the kind of experiment: stopped flow CO2 hydrase assay, hCA IV. To be noted: mean from three different assays. Type of assay: biochemical. As for the experimental part: as §1

The target in a further assay is LdCA (Leishmania donovani, UniProt A0A3S5H5R2). As to the kind of experiment: biochemical. To be noted: stopped flow CO2 hydrase assay; mean from three different assays; read-out: Ki LdCA. As for the experimental part:
(§2) An Applied Photophysics stopped-flow instrument was used to assay the CA catalysed CO2 hydration activity. […] The uncatalyzed rates were determined in the same manner and subtracted from the total observed rates. Stock solutions of the inhibitor (0.1 mM) were prepared in distilled–deionized water and dilutions up to 0.01 nM were done thereafter with the assay buffer. Inhibitor and enzyme solutions were preincubated together for 15 min at room temperature prior to the assay, to allow for the formation of the E–I complex. The inhibition constants were obtained by non-linear least-squares methods using PRISM 3 and the Cheng-Prusoff equation as reported earlier and represent the mean from at least three different determinations. All CA isoforms were recombinant proteins obtained in house, as reported earlier[14]^,[26–29].

A further assay deals with SmCA (Schistosoma mansoni, UniProt A0A3Q0KSG2). As to the kind of experiment: biochemical. To be noted: stopped flow CO2 hydrase assay; mean from three different assays; read-out: Ki SmCA. The protocol:
as §2

Assay [1] has as its system newly transformed schistosomula (NTS). As to the kind of experiment: In vitro antischistosomal activity against newly transformed schistosomula (NTS). Type of assay: cell-based, Schistosoma mansoni. As to conditions: 10 μM, after 72 h of exposure, viability via microscopy. The protocol: (§3) In vitro studies were carried out in accordance with Swiss national and cantonal regulations on animal welfare under the permission number 2070. The drug sensitivity assays with S. mansoni (adult and newly transformed schistosomules (NTS)) were carried out as described recently. Briefly, to obtain NTS, cercariae were collected from infected Biomphalaria glabrata snails and were mechanically transformed. Adult S. mansoni worms were collected by dissecting the mesenteric veins of infected mice at day 49 postinfection. Approximately 30–40 NTS were incubated with the respective test drug in 250 µL of M199 medium (Gibco, Waltham, MA) supplemented with 5% (v/v) foetal calf serum (FCS) (Bioconcept AG, Switzerland), 1% (v/v) penicillin/streptomycin solution (Sigma–Aldrich, Switzerland) and 1% (v/v) antibacterial/antifungal solution for up to 72 h at 37 °C and 5% CO2. The drug was tested at 10 µM in triplicate and repeated once. Three adult S. mansoni were incubated in a final volume of 2 mL rpmI 1640 supplemented with 5% (v/v) FCS and 1% (v/v) penicillin/streptomycin at 37 °C and 5% CO2 for 72 h at 10 µM. The experiment was conducted in duplicate. Worms were judged via microscopic readout 72 h after incubation; they were scored according to phenotypic reference points such as motility, morphology and granularity (scores from 0 to 3).

The target in another assay is T3, hCA I (Homo sapiens, UniProt P00915).
T3 construct: made in house
Kind of assay: stopped flow CO2 hydrase assay, hCA I. To be noted: mean from three different assays. Type of assay: biochemical. The protocol:
as §1

A further assay addresses T4, hCA II (Homo sapiens, UniProt P00918).
T4 construct: made in house
Kind of assay: stopped flow CO2 hydrase assay, hCA II. It is filed as biochemical. To be noted: mean from three different assays, read-out: Ki hCAII. As for the experimental part: as §1

Another assay relates to S. mansoni adult worms. Kind of assay: In vitro antischistosomal activity against adult S. mansoni worms. Type of assay: cell-based, Schistosoma mansoni. As to conditions: 10 μM, 72 h, viability via microscopy. As for the experimental part:
as §3

T3 sequence (P00915 whole entry): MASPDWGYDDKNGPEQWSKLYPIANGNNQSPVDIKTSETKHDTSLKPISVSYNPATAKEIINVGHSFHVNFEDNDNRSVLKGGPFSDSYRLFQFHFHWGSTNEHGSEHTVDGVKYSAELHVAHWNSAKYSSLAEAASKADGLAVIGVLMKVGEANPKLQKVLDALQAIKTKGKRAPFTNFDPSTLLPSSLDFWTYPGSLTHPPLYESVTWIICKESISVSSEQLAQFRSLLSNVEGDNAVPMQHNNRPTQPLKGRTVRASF
SmCA, sequence (A0A3Q0KSG2 entry or part of it): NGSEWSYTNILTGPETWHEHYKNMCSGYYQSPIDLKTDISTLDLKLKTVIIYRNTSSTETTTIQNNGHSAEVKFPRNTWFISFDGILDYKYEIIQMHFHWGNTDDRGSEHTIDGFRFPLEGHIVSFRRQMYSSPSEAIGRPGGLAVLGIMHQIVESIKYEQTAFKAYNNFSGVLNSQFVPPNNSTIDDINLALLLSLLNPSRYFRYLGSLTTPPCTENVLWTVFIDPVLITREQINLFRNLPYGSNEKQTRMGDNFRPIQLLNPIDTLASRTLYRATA
LdCA, sequence (A0A3S5H5R2 entry or part of it): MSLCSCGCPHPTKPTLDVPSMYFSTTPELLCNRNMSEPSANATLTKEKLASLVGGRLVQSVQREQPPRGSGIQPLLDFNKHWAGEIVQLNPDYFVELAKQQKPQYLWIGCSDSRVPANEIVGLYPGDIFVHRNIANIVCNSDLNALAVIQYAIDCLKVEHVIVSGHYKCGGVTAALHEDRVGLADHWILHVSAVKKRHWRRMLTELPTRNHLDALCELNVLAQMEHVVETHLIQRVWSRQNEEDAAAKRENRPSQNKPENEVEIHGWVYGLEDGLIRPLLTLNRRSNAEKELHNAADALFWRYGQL
T2 sequence (P22748 19-312): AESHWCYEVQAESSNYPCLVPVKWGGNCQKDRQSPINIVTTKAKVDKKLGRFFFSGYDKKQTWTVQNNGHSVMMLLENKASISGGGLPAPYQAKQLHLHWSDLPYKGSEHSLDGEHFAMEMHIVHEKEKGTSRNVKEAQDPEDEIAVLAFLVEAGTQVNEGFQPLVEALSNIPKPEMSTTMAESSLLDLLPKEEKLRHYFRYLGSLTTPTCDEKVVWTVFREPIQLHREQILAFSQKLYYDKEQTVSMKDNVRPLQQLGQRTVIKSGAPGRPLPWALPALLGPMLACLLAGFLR

Regarding `NS(=O)(=O)c1ccc(CCNC(=O)N2CC(=O)N3CCc4ccccc4C3C2)cc1` (centres unmarked) [Compound 34c, 4-Oxo-N-(4-sulfamoylphenethyl)-1,3,4,6,7,11b-hexahydro-2H-pyrazino[2,1-a]isoquinoline-2-carboxamide], the Ki on hCA IX stood at 102 ± 5.9 nM; on hCA IV it was 4180 ± 442 nM; on LdCA, 362 ± 27.3 nM; on SmCA, 5.6 ± 0.5 nM; on hCA I it was 20.5 ± 2 nM; on hCA II, 5.8 ± 0.3 nM. The “activity against NTS” value in assay [1] is on record as “over 30%”.
Consider `NS(=O)(=O)c1ccc(NC(=O)NCc2ccc(C(=O)N3CC(=O)N4CCc5ccccc5C4C3)cc2)cc1` (centres unmarked) [Compound 28a, 4–(3-(4–(4-Oxo-1,3,4,6,7,11b-hexahydro-2H-pyrazino[2,1-a]isoquinoline-2-carbonyl)benzyl)ureido)benzenesulfonamide], for which the Ki turned out to be 31.8 ± 1.8 nM at hCA IX; 548 ± 29.6 nM at hCA IV; 340 ± 33.9 nM at LdCA; 614 ± 50.6 nM at SmCA; 74.4 ± 3.9 nM at hCA I; 8.2 ± 0.7 nM on hCA II. Besides, the “activity against NTS” value in assay [1] was “over 30%”.
With `NS(=O)(=O)c1ccc(CCC(=O)N2CC(=O)N3CCc4ccccc4C3C2)cc1` (centres unmarked) [Compound 4b, 4–(3-Oxo-3–(4-oxo-1,3,4,6,7,11b-hexahydro-2H-pyrazino[2,1-a]isoquinolin-2-yl)propyl) benzenesulfonamide], the Ki is 139 ± 8 nM on hCA IX; 785 ± 58.3 nM at hCA IV; 417 ± 33.9 nM on LdCA; 93.6 ± 7 nM at SmCA; 67.7 ± 5.1 nM on hCA I; 17.5 ± 1 nM at hCA II. For the same compound, in the assay with S. mansoni adult worms, the “activity against adult S. mansoni worms” value was 20.9%.
Turning to `NS(=O)(=O)c1ccc(NC(=O)N2CC(=O)N3CCc4ccccc4C3C2)cc1` (centres unmarked) [Compound 34a, 4-Oxo-N-(4-sulfamoylphenyl)-1,3,4,6,7,11b-hexahydro-2H-pyrazino[2,1-a]isoquinoline-2-carboxamide], the Ki on hCA IX worked out at 24.7 ± 1.44 nM; on hCA IV it was 4410 ± 371 nM; on LdCA it was 253 ± 19.4 nM; on SmCA, 59.6 ± 4.3 nM; at hCA I, 70.4 ± 5.7 nM; at hCA II it was 8.4 ± 0.8 nM. Also, the “activity against adult S. mansoni worms” value in the assay on S. mansoni adult worms turned out to be 30.6%. In addition, the “activity against NTS” value in assay [1] is listed as “over 30%”.

By Ki is commonly meant a measure of affinity in units of concentration, obtained from inhibition or displacement.
